Assay results: US20230382924A1, “MODULATORS OF CYSTIC FIBROSIS TRANSMEMBRANE CONDUCTANCE REGULATOR” (VERTEX PHARMACEUTICALS INCORPORATED, priority 2020, published 2023)
Where two headings read alike, the source gives them in different places. Values belong to the compound of their own block, whether it stands above or below them.

Molecular target: CFTR (Homo sapiens, UniProt P13569)
Test: Membrane Potential Dye, Enteroid Assay A
Type: cell-based
Details: for EC50: read-out: Ent. A EC50
Summary of the method: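 Signal is reported as % Activity relative to a triple CFTR modulator control (3 μM + 3 μM + 300 nM acute). Read-out: membrane potential fluorescence (20 μM methyl oxonol) monitored for 15 min after chloride-free stimulation. Dye loading took 25 min at room temperature in Bath 1 buffer containing CaCC blockers.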

CFTR, sequence (P13569 with tags, fused parts or gaps DEL508-508): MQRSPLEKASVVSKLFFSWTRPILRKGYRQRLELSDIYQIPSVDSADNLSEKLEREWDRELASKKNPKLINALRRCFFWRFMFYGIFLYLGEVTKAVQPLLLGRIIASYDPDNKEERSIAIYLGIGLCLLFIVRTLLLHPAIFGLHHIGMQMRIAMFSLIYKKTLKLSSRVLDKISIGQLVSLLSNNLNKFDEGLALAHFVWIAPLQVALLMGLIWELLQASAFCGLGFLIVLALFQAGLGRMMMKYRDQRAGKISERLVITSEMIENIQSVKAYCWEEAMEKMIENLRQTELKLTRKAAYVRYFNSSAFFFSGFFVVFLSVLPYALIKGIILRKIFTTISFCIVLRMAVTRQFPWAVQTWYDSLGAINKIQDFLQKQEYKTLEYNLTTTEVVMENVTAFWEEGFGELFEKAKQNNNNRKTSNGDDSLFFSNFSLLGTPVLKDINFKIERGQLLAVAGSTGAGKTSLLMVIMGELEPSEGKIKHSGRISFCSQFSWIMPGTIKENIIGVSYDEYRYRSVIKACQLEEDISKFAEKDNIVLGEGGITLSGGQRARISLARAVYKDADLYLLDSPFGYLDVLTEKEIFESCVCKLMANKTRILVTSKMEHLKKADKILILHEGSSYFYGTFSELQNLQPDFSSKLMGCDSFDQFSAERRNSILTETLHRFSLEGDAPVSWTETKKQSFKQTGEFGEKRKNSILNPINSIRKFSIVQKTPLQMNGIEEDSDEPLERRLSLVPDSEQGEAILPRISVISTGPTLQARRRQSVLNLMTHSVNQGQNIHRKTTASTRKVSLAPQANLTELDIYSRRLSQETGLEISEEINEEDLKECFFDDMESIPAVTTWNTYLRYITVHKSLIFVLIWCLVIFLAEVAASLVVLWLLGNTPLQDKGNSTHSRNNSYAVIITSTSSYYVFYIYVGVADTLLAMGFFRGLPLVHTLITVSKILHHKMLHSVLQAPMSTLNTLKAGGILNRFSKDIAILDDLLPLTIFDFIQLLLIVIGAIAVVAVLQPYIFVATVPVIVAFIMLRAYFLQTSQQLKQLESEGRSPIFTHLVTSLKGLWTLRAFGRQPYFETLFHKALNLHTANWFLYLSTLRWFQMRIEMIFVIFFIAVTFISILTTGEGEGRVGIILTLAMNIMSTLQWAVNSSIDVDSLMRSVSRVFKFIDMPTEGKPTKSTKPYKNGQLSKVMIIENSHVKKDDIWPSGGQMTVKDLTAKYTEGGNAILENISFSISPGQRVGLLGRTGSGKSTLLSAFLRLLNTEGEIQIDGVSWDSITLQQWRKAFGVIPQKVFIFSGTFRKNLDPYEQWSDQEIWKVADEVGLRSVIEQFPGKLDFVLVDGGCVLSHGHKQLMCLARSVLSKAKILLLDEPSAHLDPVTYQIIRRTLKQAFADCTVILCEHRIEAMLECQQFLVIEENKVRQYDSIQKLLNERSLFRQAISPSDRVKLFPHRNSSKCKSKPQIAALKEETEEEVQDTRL

Ent. A Max Activity (Table 8): + (+ is <30%)
SMILES: Cc1cccc(C)c1-c1cc2nc(n1)NS(=O)(=O)c1cccc(c1)C(=O)NCC(c1cnc(C(C)(C)C)nc1)O2 (stereo not shown) [Compound 285]

Ent. A Max Activity (Table 9): +++ (+++ is >60%) | EC50 (Table 9): < 1 µM
SMILES: Cc1cccc(C)c1-c1cc2nc(n1)NS(=O)(=O)c1cccc(c1)C(=O)NCC(c1ccc(C34CC(C3)C4)cc1)O2 (stereo not shown) [Compound 398]

Ent. A Max Activity (Table 8): + (+ is <30%)
SMILES: Cc1cccc(C)c1-c1cc2nc(n1)NS(=O)(=O)c1cccc(c1)C(=O)NC(C(=O)NC(C)(C)C)CO2 (stereo not shown) [Compound 66, N-tert-butyl-6-(2,6-dimethylphenyl)-2,2,13-trioxo-9-oxa-2λ^6-thia-3,5,12,19-tetrazatricyclo[12.3.1.14,8]nonadeca-1(18),4(19),5,7,14,16-hexaene-11-carboxamide]

Ent. A Max Activity (Table 8): +++ (+++ is >60%) | EC50 (Table 8): < 1 µM
SMILES: Cc1cccc(C)c1-c1cc2nc(n1)NS(=O)(=O)c1cccc(c1)C(=O)N[C@H](CC(C)C)[C@H](C)O2 [Compound 235]

Ent. A Max Activity (Table 9): ++ (++ is 30-60%) | EC50 (Table 9): < 1 µM
SMILES: Cc1cccc(C)c1-c1cc2nc(n1)NS(=O)(=O)c1cccc(c1)C(=O)NCC(C#CC(C)(C)C)O2 (stereo not shown) [Compound 297]

Ent. A Max Activity (Table 9): +++ (+++ is >60%) | EC50 (Table 9): < 1 µM
SMILES: Cc1cccc(C)c1-c1cc2nc(n1)NS(=O)(=O)c1cccc(c1)C(=O)NC1(CCC(C(C)(C)C)CC1)CO2 (stereo not shown) [Compound 495]

EC50 (Table 8): 3 to 30 µM
SMILES: Cc1cccc(C)c1-c1cc2nc(n1)NS(=O)(=O)c1cccc(c1)C(=O)NCC(CN1CCCCC1)O2 (stereo not shown) [Compound 410]

Ent. A Max Activity (Table 9): + (+ is <30%)
SMILES: Cc1cccc(C)c1-c1cc2nc(n1)NS(=O)(=O)c1ccccc1C(=O)N[C@H](C)[C@@H](c1ccc(C(C)(C)C)cc1)O2 [Compound 282]

Ent. A Max Activity (Table 9): +++ (+++ is >60%) | EC50 (Table 9): < 1 µM
SMILES: CC[C@H]1NC(=O)c2cccc(c2)S(=O)(=O)Nc2nc(cc(-c3c(C)cccc3C)n2)O[C@H]1c1ccc(C(C)(C)C)cc1 [Compound 132]

EC50 (Table 8): < 1 µM
SMILES: Cc1ccccc1[C@@H]1CNC(=O)c2cccc(c2)S(=O)(=O)Nc2nc(cc(-c3c(C)cccc3C)n2)O1 [Compound 276]

Ent. A Max Activity (Enteroid Assay A): ++ (++ is 30-60%) | EC50 (Enteroid Assay A): 3 to 30 µM
SMILES: Cc1cccc(C)c1-c1cc2nc(n1)NS(=O)(=O)c1cccc(c1)C(=O)NCc1cccc(c1)O2 [Compound 197]

Ent. A Max Activity (Table 9): ++ (++ is 30-60%) | EC50 (Table 9): < 1 µM
SMILES: Cc1cccc(C)c1-c1cc2nc(n1)NS(=O)(=O)c1cccc(c1)C(=O)NC[C@@H](c1ccc(CCC3(C(F)(F)F)CC3)cc1)O2 [Compound 145]

Ent. A Max Activity (Table 9): + (+ is <30%) | EC50 (Table 9): < 1 µM
SMILES: Cc1cccc(C)c1-c1cc2nc(n1)NS(=O)(=O)c1cccc(c1)C(=O)NCC(c1ccc(CC(C)(C)C)cc1)O2 (stereo not shown) [Compound 264]

EC50 (Table 8): < 1 µM
SMILES: Cc1cccc(C)c1-c1cc2nc(n1)NS(=O)(=O)c1cccc(c1)C(=O)NCC(c1ccc(C(F)(F)F)cc1)O2 (stereo not shown) [Compound 403]

EC50 (Table 8): 1 to 3 µM
SMILES: Cc1cccc(C)c1-c1cc2nc(n1)NS(=O)(=O)c1cccc(c1)C(=O)NCC(CC(C)C)O2 (stereo not shown) [Compound 255]

Ent. A Max Activity (Table 8): +++ (+++ is >60%) | EC50 (Table 8): < 1 µM
SMILES: CCC(CC)[C@@H]1COc2cc(-c3c(C)cccc3C)nc(n2)NS(=O)(=O)c2cccc(c2)C(=O)N1 [Compound 386]

Ent. A Max Activity (Table 9): +++ (+++ is >60%) | EC50 (Table 9): < 1 µM
SMILES: Cc1cccc(C)c1-c1cc2nc(n1)NS(=O)(=O)c1cccc(c1)C(=O)N[C@H](CC(C)C)CCO2 [Compound 225]

Ent. A Max Activity (Table 8): + (+ is <30%)
SMILES: Cc1cccc(C)c1-c1cc2nc(n1)NS(=O)(=O)c1cccc(c1)C(=O)NC(C(F)(F)F)CO2 (stereo not shown) [Compound 171]

Ent. A Max Activity (Enteroid Assay A): ++ (++ is 30-60%) | EC50 (Enteroid Assay A): < 1 µM
SMILES: Cc1cccc(C)c1-c1cc2nc(n1)NS(=O)(=O)c1cccc(c1)C(=O)NC[C@H](Cc1ccccc1)O2 [Compound 346]

Ent. A Max Activity (Table 8): + (+ is <30%)
SMILES: Cc1cccc(C)c1-c1cc2nc(n1)NS(=O)(=O)c1cccc(c1)C(=O)NCC(c1ccc(C(C)(C)C#N)cc1)O2 (stereo not shown) [Compound 152]

Ent. A Max Activity (Table 9): ++ (++ is 30-60%) | EC50 (Table 9): < 1 µM
SMILES: Cc1cccc(C)c1-c1cc2nc(n1)NS(=O)(=O)c1cccc(c1)C(=O)NCC(c1ccc(C3(C)CC3)cc1)O2 (stereo not shown) [Compound 265]

Ent. A Max Activity (Table 8): + (+ is <30%)
SMILES: Cc1cccc(C)c1-c1cc2nc(n1)NS(=O)(=O)c1cccc(c1)C(=O)NC[C@@H](CN1CCCCC1)O2 (stereo in doubt) [Compound 409]

Ent. A Max Activity (Enteroid Assay A): ++ (++ is 30-60%) | EC50 (Enteroid Assay A): < 1 µM
SMILES: Cc1cccc(C)c1-c1cc2nc(n1)NS(=O)(=O)c1cccc(c1)C(=O)NC1CC(CN(CCC(C)(C)C)C1)O2 (single isomer, unassigned) [Compound 79, 5-(3,3-dimethylbutyl)-19-(2,6-dimethylphenyl)-2-oxa-15λ^6-thia-5,8,16,18,21-pentaazatetracyclo[15.3.1.13,7.110,14]tricosa-1(20),10,12,14(22),17(21),18-hexaene-9,15,15-trione]

Ent. A Max Activity (Table 8): +++ (+++ is >60%) | EC50 (Table 8): < 1 µM
SMILES: Cc1cccc(C)c1-c1cc2nc(n1)NS(=O)(=O)c1cccc(c1)C(=O)NC[C@@H](c1cccc(C(C)(C)C)c1)O2 [Compound 273]

The remaining lines, values behind:

SMILES: Cc1cccc(C)c1-c1cc2nc(n1)NS(=O)(=O)c1cccc(c1)C(=O)NCC1(CCN(C(=O)[C@H]3[C@H](c4ccccc4)C3(C)C)CC1)CO2 [Compound 465]
Ent. A Max Activity (Enteroid Assay A): ++ (++ is 30-60%) | EC50 (Enteroid Assay A): 1 to 3 µM

SMILES: Cc1cccc(C)c1-c1cc2nc(n1)NS(=O)(=O)c1cncc(c1)C(=O)N[C@H](CC(C)C)CO2 [Compound 413]
Ent. A Max Activity (Table 8): +++ (+++ is >60%) | EC50 (Table 8): 1 to 3 µM

SMILES: Cc1cccc(C)c1-c1cc2nc(n1)NS(=O)(=O)c1cccc(c1)C(=O)NCC1(CCN(C(=O)C(CC(C)C)NC(=O)OC(C)(C)C)CC1)CO2 (stereo not shown) [Compound 450]
Ent. A Max Activity (Enteroid Assay A): ++ (++ is 30-60%) | EC50 (Enteroid Assay A): 3 to 30 µM

SMILES: Cc1cccc(CO)c1-c1cc2nc(n1)NS(=O)(=O)c1cccc(c1)C(=O)N[C@H](CC(C)C)CO2 [Compound 395]
Ent. A Max Activity (Table 9): ++ (++ is 30-60%) | EC50 (Table 9): 3 to 30 µM

SMILES: Cc1cccc(C)c1-c1cc2nc(n1)NS(=O)(=O)c1cccc(c1)C(=O)NC1(CCN(C3CC4(CC4)C3)CC1)CO2 [Compound 174]
Ent. A Max Activity (Table 9): +++ (+++ is >60%) | EC50 (Table 9): 1 to 3 µM

SMILES: Cc1cccc(C)c1-c1cc2nc(n1)NS(=O)(=O)c1cccc(c1)CN[C@H](CC(C)C)CO2 [Compound 240]
Ent. A Max Activity (Table 9): ++ (++ is 30-60%) | EC50 (Table 9): 3 to 30 µM

SMILES: Cc1cccc(C)c1-c1cc2nc(n1)NS(=O)(=O)c1cccc(c1)C(=O)N[C@@H]1CCN(CCC(C)(C)C)C[C@H]1O2 (single isomer, unassigned) [Compound 89, 5-(3,3-Dimethylbutyl)-20-(2,6-dimethylphenyl)-2-oxa-16λ^6-thia-5,9,17,19,22-pentaazatetracyclo[16.3.1.111,15.03,8]tricosa-1(21),11(23),12,14,18(22),19-hexaene-10,16,16-trione]
Ent. A Max Activity (Table 9): + (+ is <30%)

SMILES: CC(C)C[C@@H]1COc2cc(-c3cc(C(F)(F)F)nn3C)nc(n2)NS(=O)(=O)c2cccc(c2)C(=O)N1 [Compound 338]
EC50 (Enteroid Assay A): 3 to 30 µM

SMILES: COc1ccc(C)c(-c2cc3nc(n2)NS(=O)(=O)c2cccc(c2)C(=O)N[C@H](CC(C)C)CO3)c1 [Compound 302]
Ent. A Max Activity (Table 8): +++ (+++ is >60%) | EC50 (Table 8): 1 to 3 µM

SMILES: COc1cccc(C)c1-c1cc2nc(n1)NS(=O)(=O)c1cccc(c1)C(=O)N[C@H](CC(C)(C)C)CO2 [Compound 304]
Ent. A Max Activity (Table 8): +++ (+++ is >60%) | EC50 (Table 8): 1 to 3 µM

SMILES: Cc1cccc(C)c1-c1cc2nc(n1)NS(=O)(=O)[C@H]1CC[C@H]1C(=O)N[C@H](CC(C)C)CO2 (single isomer, unassigned) [Compound 72]
Ent. A Max Activity (Table 9): + (+ is <30%)

SMILES: Cc1cccc(C)c1-c1cc2nc(n1)NS(=O)(=O)c1cccc(c1)C(=O)NCC1(CCN(CC3CCCCC3)CC1)CO2 [Compound 85, 1′-(Cyclohexylmethyl)-6-(2,6-dimethylphenyl)-2,2-dioxo-spiro[9-oxa-2λ^6-thia-3,5,13,20-tetrazatricyclo[13.3.1.14,8]icosa-1(19),4(20),5,7,15,17-hexaene-11,4′-piperidine]-14-one]
Ent. A Max Activity (Enteroid Assay A): ++ (++ is 30-60%) | EC50 (Enteroid Assay A): 3 to 30 µM

SMILES: CCC1CC=C(c2cc3nc(n2)NS(=O)(=O)c2cccc(c2)C(=O)N[C@H](CC(C)C)CO3)CC1 (stereo partly shown) [Compound 322]
Ent. A Max Activity (Enteroid Assay A): ++ (++ is 30-60%) | EC50 (Enteroid Assay A): 1 to 3 µM

SMILES: Cc1cccc(C)c1-c1cc2nc(n1)NS(=O)(=O)c1cccc(c1)C(=O)NCC1(CCN(C[C@H]3COC(C)(C)N3C(=O)OC(C)(C)C)CC1)CO2 [Compound 439]
Ent. A Max Activity (Enteroid Assay A): ++ (++ is 30-60%) | EC50 (Enteroid Assay A): 3 to 30 µM

SMILES: CC(C)C[C@@H]1COc2cc(C3C(C)CCCC3C)nc(n2)NS(=O)(=O)c2cccc(c2)C(=O)N1 (stereo partly shown) [Compound 301]
EC50 (Table 8): 3 to 30 µM

SMILES: COc1ccccc1-c1cc2nc(n1)NS(=O)(=O)c1cccc(c1)C(=O)N[C@H](CC(C)C)CO2 [Compound 330]
Ent. A Max Activity (Enteroid Assay A): ++ (++ is 30-60%)

SMILES: CCOc1ccccc1-c1cc2nc(n1)NS(=O)(=O)c1cccc(c1)C(=O)N[C@H](CC(C)C)CO2 [Compound 328]
Ent. A Max Activity (Enteroid Assay A): ++ (++ is 30-60%) | EC50 (Enteroid Assay A): 1 to 3 µM
